How the values were obtained:
Green foxtail [1] = assay: Test D green foxtail; format: in vivo; details: Postemergence, 0 to 100 scale, 0 no injury, 100 complete control
wild oat = assay: Test E wild oat; format: in vivo, Avena fatua; details: Preemergence
Alexandergrass = assay: Test D Alexandergrass; format: in vivo, Brachiaria plantaginea; details: Postemergence, 0 to 100 scale
Green foxtail [2] = assay: Test D green foxtail; format: in vivo; details: Rate 250 g/ha; Postemergence; 0 to 100 scale
blackgrass = assay: Test E blackgrass; format: in vivo, Alopecurus myosuroides; details: Preemergence
dallisgrass = assay: Test D dallisgrass; format: in vivo, Paspalum dilatatum; details: Postemergence, 0 to 100 scale
winter wheat [3] = assay: Test E winter wheat; format: in vivo, Triticum aestivum; details: Postemergence; for Plant response rating, Wheat (winter): 0 to 100 scale, 0 is no effect, 100 is complete control
Outline: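 Compound formulated with surfactant in a non-phytotoxic solvent (postemergence: young 1- to 4-leaf plants); held in greenhouse approx. 21–28 days; visual assessment against untreated plants.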

duck salad = assay: Test B flood test duck salad; format: in vivo, Heteranthera limosa
Outline: (§1)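 Read-out is a visual response score from 0 (no effect) to 10 (complete control), assigned by comparison with untreated controls. Treatment was applied at the 2-leaf stage, and plants stayed in the greenhouse for twelve to sixteen days before scoring.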

rice = assay: Test B flood test rice; format: in vivo, Oryza sativa
Outline: as §1

green foxtail [4] = assay: Test E green foxtail; format: in vivo, Setaria viridis; details: Preemergence
winter barley = assay: Test E winter barley; format: in vivo, Hordeum vulgare; details: Preemergence
morningglory = assay: Test B pre/postemergence morningglory; format: in vivo, Ipomoea hederacea
Outline: (§2)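 Response is a visual 0-to-10 score relative to untreated plants, where 0 means no effect and 10 means complete control, taken twelve to sixteen days after application. Treatments went onto soil at planting and onto foliage of 1- to 4-leaf plants, using a surfactant-containing non-phytotoxic solvent.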

Italian ryegrass = assay: Test E Italian ryegrass; format: in vivo, Lolium multiflorum; details: Preemergence
winter wheat [5] = assay: Test E winter wheat; format: in vivo, Triticum aestivum; details: Preemergence
giant foxtail = assay: Test B pre/postemergence giant foxtail; format: in vivo, Setaria faberii
Outline: as §2

[6] = Rate 125 g/ha, 0 to 100 scale (0 no effect, 100 complete control)
[7] = Rate 500 g/ha, 0 to 100 scale where 0 is no effect and 100 is complete control
[8] = Rate 16 g/ha, 0 no injury, 100 complete control
[9] = Rate 32 g/ha, 0 no injury, 100 complete control
[10] = Rate 64 g/ha, 0 no injury, 100 complete control
[11] = Rate 125 g/ha, 0 no injury, 100 complete control
[12] = Rate 62 g/ha, headed Pre-emergence (flood test species), scale 0 to 10 (0 no effect, 10 complete control)
[13] = Rate 125 g/ha, Pre-emergence, flood test species, scale 0 to 10 where 0 is no effect and 10 is complete control
[14] = Rate 250 g/ha, Pre-emergence, flood-test species, scale 0 to 10, 0 is no effect, 10 is complete control
[15] = Rate 500 g/ha, Pre-emergence, flood test species, scale 0 to 10 (0 no effect, 10 complete control)
[16] = Preemergence, Rate 62 g/ha, scale of 0 to 10 where 0 is no effect and 10 is complete control
[17] = Preemergence, Rate 250 g/ha, scale of 0 to 10 where 0 is no effect and 10 is complete control
[18] = Preemergence, Rate 500 g/ha, scale of 0 to 10 where 0 is no effect and 10 is complete control
[19] = Rate 62 g/ha, Postemergence, scale of 0 to 10 where 0 is no effect and 10 is complete control
[20] = Rate 125 g/ha, Preemergence, scale of 0 to 10 where 0 is no effect and 10 is complete control
[21] = Rate 500 g/ha, Postemergence, scale 0 to 10, 0 no effect, 10 complete control
[22] = Postemergence (flood test), Rate 125 g/ha, scale 0 to 10, 0 is no effect, 10 is complete control
[23] = Rate 62 g/ha, Postemergence (flood test species), scale of 0 to 10 where 0 is no effect and 10 is complete control
[24] = Rate 500 g/ha, listed under Postemergence (flood test species), scale 0 to 10, 0 no effect, 10 complete control
[25] = Postemergence, Rate 125 g/ha, scale 0 to 10, 0 is no effect, 10 is complete control
[26] = Preemergence, Rate 62 g/ha, scale 0 to 10 (0 no effect, 10 complete control)
[27] = flood test species, listed under Postemergence, Rate 250 g/ha, scale 0 to 10, 0 is no effect, 10 is complete control
[28] = Postemergence, Rate 250 g/ha, scale 0 to 10, 0 is no effect, 10 is complete control

CC(C)N(C(=O)n1oc(=O)n(C2CC2)c1=O)c1ccccc1 [Compound 243]
70: Plant response rating, Dallisgrass (dallisgrass; [10]) | Plant response rating, Wheat (winter) (winter wheat [3]; Rate 125 g/ha) | Plant response rating, Barley (winter) (winter barley; [7]) | Plant response rating, I. Ryegrass (Italian ryegrass; [6]) | Wheat (winter) plant response rating (0 to 100 scale) (winter wheat [5]; Rate 250 g/ha)
0: Plant response rating, Alexandergrass (Alexandergrass; [8]) | Plant response rating, Alexandergrass (Alexandergrass; [9]) | Plant response rating, Dallisgrass (dallisgrass; [8]) | Ducksalad plant response rating (duck salad; [12]) | Ducksalad plant response rating (duck salad; [13]) | Ducksalad plant response rating (duck salad; [14]) | Ducksalad plant response rating (duck salad; [15]) | Rice plant response rating (rice; [12]) | Rice plant response rating (rice; [13]) | Rice plant response rating (rice; [14]) | Rice plant response rating (rice; [15])
2: Morningglory plant response rating (morningglory; [16])
100: Green foxtail plant response rating (Green foxtail [1]; Rate 64 g/ha) | Green foxtail plant response rating (Green foxtail [1]; Rate 125 g/ha) | Plant response rating, Alexandergrass (Alexandergrass; [11]) | Plant response rating, Alexandergrass (Alexandergrass; Rate 250 g/ha) | Plant response rating, Green foxtail (Green foxtail [2]) | Plant response rating, Blackgrass (blackgrass; [7]) | Plant response rating, Dallisgrass (dallisgrass; [11]) | Plant response rating, Dallisgrass (dallisgrass; Rate 250 g/ha) | Green foxtail plant response rating (0 to 100 scale) (green foxtail [4]; Rate 250 g/ha) | Plant response rating, Green foxtail (green foxtail [4]; [7]) | Plant response rating, I. Ryegrass (Italian ryegrass; [7])
75: Wheat (winter) plant response rating (winter wheat [3]; Rate 250 g/ha, 0 to 100 scale where 0 is no effect and 100 is complete control) | Plant response rating, Green foxtail (green foxtail [4]; [6]) | Plant response rating, Wheat (winter) (winter wheat [5]; [7])
80: Plant response rating, Wheat (winter) (winter wheat [3]; Rate 500 g/ha)
5: Morningglory plant response rating (morningglory; [19])
65: Plant response rating, Blackgrass (blackgrass; [6])
20: Plant response rating, Alexandergrass (Alexandergrass; [10])
50: Plant response rating, Dallisgrass (dallisgrass; [9]) | Plant response rating, Wheat (winter) (winter wheat [5]; [6])
85: Blackgrass plant response rating (0 to 100 scale) (blackgrass; Rate 250 g/ha) | I. Ryegrass plant response rating (0 to 100 scale) (Italian ryegrass; Rate 250 g/ha)
3: Morningglory plant response rating (morningglory; [20]) | Giant foxtail plant response rating (giant foxtail; [19])
8: Morningglory plant response rating (morningglory; [17]) | Morningglory plant response rating (morningglory; [21]) | Plant response rating (0 to 10; 0 is no effect, 10 is complete control), Giant foxtail (giant foxtail; Rate 250 g/ha, Postemergence) | Giant foxtail plant response rating (giant foxtail; [21])
10: Plant response rating, Morningglory (morningglory; [18]) | Giant foxtail plant response rating (giant foxtail; [16]) | Giant foxtail plant response rating (giant foxtail; [17]) | Plant response rating, Giant foxtail (giant foxtail; [18]) | Giant foxtail plant response rating (giant foxtail; [20])
7: Plant response rating (0 to 10; 0 is no effect, 10 is complete control), Morningglory (morningglory; Rate 250 g/ha, Postemergence)
55: Wild oat plant response rating (0 to 100 scale) (wild oat; Rate 250 g/ha)
90: Plant response rating, Wild oat (wild oat; [7])
60: Plant response rating, Wild oat (wild oat; [6]) | Barley (winter) plant response rating (0 to 100 scale) (winter barley; Rate 250 g/ha)
30: Plant response rating, Barley (winter) (winter barley; [6])

COCC(C)n1c(=O)on(C(=O)N(c2ccc(F)cc2F)C(C)C)c1=O (stereo not drawn) [Compound 352]
60: Plant response rating, Alexandergrass (Alexandergrass; [9])
2: Plant response rating, Ducksalad (duck salad; [24]) | Morningglory plant response rating (morningglory; [18]) | Plant response rating, Giant foxtail (giant foxtail; [25]) | Giant foxtail plant response rating (giant foxtail; [19])
80: Plant response rating, Alexandergrass (Alexandergrass; [10]) | Plant response rating, Dallisgrass (dallisgrass; [10])
0: Plant response rating, Alexandergrass (Alexandergrass; [8]) | Plant response rating, Dallisgrass (dallisgrass; [8]) | Plant response rating, Ducksalad (duck salad; [22]) | Ducksalad plant response rating (duck salad; [23]) | Rice plant response rating (rice; [23]) | Plant response rating, Morningglory (morningglory; [26]) | Morningglory plant response rating (0 to 10 scale) (morningglory; Preemergence, Rate 125 g/ha) | Morningglory plant response rating (morningglory; [17]) | Morningglory plant response rating (morningglory; [19])
8: Plant response rating, Morningglory (morningglory; [21])
100: Green foxtail plant response rating (Green foxtail [1]; Rate 64 g/ha) | Green foxtail plant response rating (Green foxtail [1]; Rate 125 g/ha) | Plant response rating, Alexandergrass (Alexandergrass; [11]) | Plant response rating, Alexandergrass (Alexandergrass; Rate 250 g/ha) | Plant response rating, Green foxtail (Green foxtail [2]) | Plant response rating, Dallisgrass (dallisgrass; [11]) | Plant response rating, Dallisgrass (dallisgrass; Rate 250 g/ha)
10: Plant response rating, Giant foxtail (giant foxtail; [26]) | Giant foxtail plant response rating (0 to 10 scale) (giant foxtail; Preemergence, Rate 125 g/ha) | Giant foxtail plant response rating (giant foxtail; [17]) | Giant foxtail plant response rating (giant foxtail; [18])
6: Plant response rating, Morningglory (morningglory; [25])
3: Plant response rating, Rice (rice; [22]) | Plant response rating, Rice (rice; [24])
70: Plant response rating, Dallisgrass (dallisgrass; [9])
9: Plant response rating, Giant foxtail (giant foxtail; [21])

CC(C)N(C(=O)n1oc(=O)n(C2(C)CC2)c1=O)c1ccccc1 [Compound 360]
4: Plant response rating, Morningglory (morningglory; [25]) | Plant response rating, Morningglory (morningglory; [28]) | Morningglory plant response rating (morningglory; [19])
50: Plant response rating, Alexandergrass (Alexandergrass; [10])
3: Plant response rating, Rice (rice; [24]) | Plant response rating, Rice (rice; [27])
40: Plant response rating, Dallisgrass (dallisgrass; [9])
60: Plant response rating, Alexandergrass (Alexandergrass; [9])
5: Morningglory plant response rating (0 to 10 scale) (morningglory; Preemergence, Rate 125 g/ha) | Plant response rating, Morningglory (morningglory; [21])
0: Plant response rating, Dallisgrass (dallisgrass; [8]) | Plant response rating, Ducksalad (duck salad; [22]) | Ducksalad plant response rating (duck salad; [23]) | Plant response rating, Ducksalad (duck salad; [24]) | Plant response rating, Ducksalad (duck salad; [27]) | Plant response rating, Rice (rice; [22]) | Rice plant response rating (rice; [23]) | Plant response rating, Morningglory (morningglory; [26])
10: Morningglory plant response rating (morningglory; [18]) | Plant response rating, Giant foxtail (giant foxtail; [26]) | Giant foxtail plant response rating (0 to 10 scale) (giant foxtail; Preemergence, Rate 125 g/ha) | Giant foxtail plant response rating (giant foxtail; [17]) | Giant foxtail plant response rating (giant foxtail; [18])
100: Green foxtail plant response rating (Green foxtail [1]; Rate 64 g/ha) | Green foxtail plant response rating (Green foxtail [1]; Rate 125 g/ha) | Plant response rating, Alexandergrass (Alexandergrass; [11]) | Plant response rating, Alexandergrass (Alexandergrass; Rate 250 g/ha) | Plant response rating, Green foxtail (Green foxtail [2]) | Plant response rating, Dallisgrass (dallisgrass; [10]) | Plant response rating, Dallisgrass (dallisgrass; [11]) | Plant response rating, Dallisgrass (dallisgrass; Rate 250 g/ha)
7: Morningglory plant response rating (morningglory; [17])
8: Plant response rating, Giant foxtail (giant foxtail; [25]) | Plant response rating, Giant foxtail (giant foxtail; [28]) | Giant foxtail plant response rating (giant foxtail; [19]) | Plant response rating, Giant foxtail (giant foxtail; [21])
20: Plant response rating, Alexandergrass (Alexandergrass; [8])
